In patent US20230248646A1 (The General Hospital Corporation, priority 2013, published 2023):
Read-outs that look alike come from different tables or passages of the source. Values belong to the compound of their own block, whether it stands above or below them.

Experiments:
[1] = NGI cascade impactor test, active dry powder inhaler with piezoelectric vibrator; type: physicochemical; conditions: NGI approx. 30 L/min for 2 seconds
Source text: The inhaler device included injection molded plastic components, electronics, a battery, and drug filled blisters. The inhaler included a lever arm, upon actuation of which the blister was placed in contact with a piezoelectric vibrator within the device and then pierced by needles. The inhaler also included an airflow sensor which automatically turned on the piezoelectric vibrator after a minimum inspiratory flow rate was exceeded. Activation of the piezoelectric vibrator […] powder particles and aerosolized them out of the blister and into the inspiratory airstream. The inhaler included visual feedback at the start of dosing and as confirmation of successful completion of dosing, thereby facilitating improved patient compliance. […] A blend containing disodium cromoglycate (DSCG) (Cambrex) and lactose monohydrate (DFE Pharma) (grade: lactohale LH201) was prepared by blending at a speed of 150 rpm for 15 minutes. The blend contained 60:40 (wt/wt.) DSCG:lactose. Neat DSCG also was tested.

[2] = NGI cascade impactor test, single-use passive dry powder inhaler ([…], Aespira); type: physicochemical; conditions: NGI approx. 100 L/min for 2.4 seconds
Method: Delivery of cromolyn by a single-use passive dry powder inhaler device was assessed. The passive inhaler device included an active particle dispersion mechanism ([…]) involving breath-driven beating of a mesh package containing the powder to be delivered. A blend containing disodium cromoglycate (DSCG) (Cambrex) and Lactohale LH300 lactose (Friesland Foods Domo) was prepared by blending in an Alpine Picoline high shear mixer (module Picomix) (Hosokawa Alpine, Augsburg, Germany) at a speed of 4000 rpm for 3 minutes. The blend contained 80:20 (wt/wt.) DSCG:lactose. Neat DSCG also was tested.

[3] = Phase 1 pharmacokinetic study of inhaled cromolyn, plasma; type: in vivo, human; conditions: for Tmax / Vd/F / AUC(0-inf) / Cmax / half-life: human; for half-life: read-out: apparent t1/2 range
[4] = NGI impactor fractions with AZHALER dry powder inhaler; type: physicochemical; conditions: per 17.1 mg of API
Source text: AZHALER. […] It is a single-dose device used to deliver the inhalation powder to the patient's lung in form of an aerosol. The inhaler consists of a container, a valve, and a mouthpiece. In this study the low resistance model (80 L airflow resistance) was used. These device reaches a pressure drop of 4 kPa at c.80 L/min, and is suitable for use on a wide range of patient population i.e. including elderly, children and patients with severe respiratory impairment

[5] = Initial characterization of manufactured cromolyn (particle size distribution); type: physicochemical
Source text: Cromolyn capsules for inhalation were manufactured by Pharmaterials, Ltd (Reading, UK). […] Therefore, there was a need to use hydrophobic excipient in the powder formulation to improve product performance and stability. Addition of hydrophobic excipient offers inherent resistance of dry powder inhalation formulations to negative effect of moisture to such formulations. Magnesium stearate was chosen as suitable hydrophobic excipient since it is commercially used in dry powder inhaler (DPI) products. […] Lactose monohydrate was additionally used as diluent for this case.

[6] = 17.1 mg single inhaled dose, mean
[7] = 34.2 mg double inhaled dose, mean
[8] = inhaled or intranasal, 17.1 mg, 17.1 mg single inhaled dose, mean
[9] = inhaled or intranasal, 34.2 mg, 34.2 mg double inhaled dose, mean

Fine Particle Dose <5 μm [1]: 2321 µg
Fine Particle Fraction <5 μm [1]: 59 % of delivered dose
Stages 4 to 8 [1]: 2098 µg
Stages 4 to 8 (% of initial dose) [1]: 42 % of initial dose
Fine Particle Dose <5 μm [2]: 430 µg
Fine Particle Dose <5 μm (% of initial dose) [2]: 9 % of initial dose
MMAD [2]: >4 μm
Stages 4 to 8 [2]: 150 µg
Stages 4 to 8 (% of initial dose) [2]: 3 % of initial dose
Structure (SMILES): O=C(O)c1cc(=O)c2c(OCC(O)COc3cccc4oc(C(=O)O)cc(=O)c34)cccc2o1 [DSCG:lactose 100:0, disodium cromoglycate]

Cl/F [3, 6]: 108532.36 mL/h
T0.5 [3, 6]: 1.75 ± 0.9 h
T0.5 ([3]; 17.1 mg single inhaled dose, mean, listed as Cromolyn): 1.75 h
Cl/F ([3]; 17.1 mg, Max): 183363.7 mL/h
T0.5 ([3]; 17.1 mg, Max): 3.7 h
T0.5 ([3]; 17.1 mg, Min): 0.6, h
Cl/F ([3]; 17.1 mg, median): 82640.18 mL/h
T0.5 ([3]; 17.1 mg, median): 1.56 h
Cl/F [3, 7]: 132178.06 mL/h
T0.5 [3, 7]: 1.91 ± 0.7 h
T0.5 ([3]; 34.2 mg double inhaled dose, mean, listed as Cromolyn): 1.91 h
Cl/F ([3]; 34.2 mg, median): 130382.20 mL/h
T0.5 ([3]; 34.2 mg, median): 1.80 h
Tmax [3, 8]: 22.8 min
Vd/F [3, 8]: 137 L
AUC(0-inf) ([3]; inhaled or intranasal, 17.1 mg, 17.1 mg single inhaled dose, mean, read-out: AUC0-inf): 196 ± 97.3 ng·h/mL
Cmax ([3]; inhaled or intranasal, 17.1 mg, 17.1 mg single inhaled dose, mean, read-out: Cmax): 46.7 ng/mL
half-life ([3]; inhaled or intranasal, 17.1 mg): 36 to 222 min
AUC(0-inf) ([3]; inhaled or intranasal, 17.1 mg, single (17.1 mg) dose inhalation, range, read-out: AUC0-inf range): 93.3 to 287 ng·h/mL
Cmax ([3]; inhaled or intranasal, 17.1 mg, single dose (17.1 mg) inhalation, mean ± SD, read-out: average Cmax): 46.7 ± 33 ng/mL
Cmax ([3]; inhaled or intranasal, 17.1 mg, single dose (17.1 mg) inhalation, range, read-out: Cmax range): 14 to 133 ng/mL
Tmax [3, 9]: 22.2 min
Vd/F [3, 9]: 330 L
AUC(0-inf) ([3]; inhaled or intranasal, 34.2 mg, 34.2 mg double inhaled dose, mean, read-out: AUC0-inf): 285 ± 91.3 ng·h/mL
Cmax ([3]; inhaled or intranasal, 34.2 mg, 34.2 mg double inhaled dose, mean, read-out: Cmax): 96.8 ng/mL
AUC(0-inf) ([3]; inhaled or intranasal, 34.2 mg, double (34.2 mg) dose inhalation, range, read-out: AUC0-inf range): 155 to 443 ng·h/mL
Cmax ([3]; inhaled or intranasal, 34.2 mg, double dose (34.2 mg) inhalation, mean ± SD, read-out: average Cmax): 96.8 ± 46.2 ng/mL
Cmax ([3]; inhaled or intranasal, 34.2 mg, double dose (34.2 mg) inhalation, range, read-out: Cmax range): 36.1 to 236 ng/mL
half-life ([3]; inhaled or intranasal, double dose (34.2 mg) inhalation, range): 42 to 228 min
Tmax ([3]; inhaled, 17.1 mg, Max): 60 min
Vd/F ([3]; inhaled, 17.1 mg, Max): 144 L
AUC(0-inf) ([3]; inhaled, 17.1 mg, Max, read-out: AUC0-inf): 287 ng·h/mL
Cmax ([3]; inhaled, 17.1 mg, Max, read-out: Cmax): 133 ng/mL
Tmax ([3]; inhaled, 17.1 mg, Min): 6 min
Vd/F ([3]; inhaled, 17.1 mg, Min): 134 L
AUC(0-inf) ([3]; inhaled, 17.1 mg, Min, read-out: AUC0-inf): 93.3 ng·h/mL
Cmax ([3]; inhaled, 17.1 mg, Min, read-out: Cmax): 14 ng/mL
Tmax ([3]; inhaled, 17.1 mg, median): 15 min
Vd/F ([3]; inhaled, 17.1 mg, median): 134 L
AUC(0-inf) ([3]; inhaled, 17.1 mg, median, read-out: AUC0-inf): 207 ng·h/mL
Cmax ([3]; inhaled, 17.1 mg, median, read-out: Cmax): 36.2 ng/mL
Tmax ([3]; inhaled, 34.2 mg, median): 13.8 min
Vd/F ([3]; inhaled, 34.2 mg, median): 264 L
AUC(0-inf) ([3]; inhaled, 34.2 mg, median, read-out: AUC0-inf): 262 ng·h/mL
Cmax ([3]; inhaled, 34.2 mg, median, read-out: Cmax): 76.5 ng/mL
cromolyn in the impactor fractions with <3 micron size particles (NGI stage 4-MOC) [4]: 4 to 5 mg
initial characterization of the material ([5]; manufactured cromolyn): crystalline and hygroscopic material
particle size distribution d50 ([5]; micronized cromolyn): < 5 μm
particle size distribution d90 ([5]; micronized cromolyn): < 10 μm
Structure (SMILES): O=C(O)c1cc(=O)c2c(OCC(O)COc3cccc4oc(C(=O)O)cc(=O)c34)cccc2o1 [cromolyn, 5,5′-(2-hydroxypropane-1,3-diyl)bis(oxy)bis(4-oxo-4H-chromene-2-carboxylic acid)]
